Biological target: Acrosin (Homo sapiens, UniProt P10323)
Experiment: Inhibition of human acrosin using N-alpha-benzoyl-DL-arginine para-nitroanilide-HCl as substrate after 3 hrs by spectrophotometry

Sequence of Acrosin (P10323 20-42 limits assumed): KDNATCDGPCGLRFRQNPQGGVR
Sequence of Acrosin (P10323 43-343 limits assumed): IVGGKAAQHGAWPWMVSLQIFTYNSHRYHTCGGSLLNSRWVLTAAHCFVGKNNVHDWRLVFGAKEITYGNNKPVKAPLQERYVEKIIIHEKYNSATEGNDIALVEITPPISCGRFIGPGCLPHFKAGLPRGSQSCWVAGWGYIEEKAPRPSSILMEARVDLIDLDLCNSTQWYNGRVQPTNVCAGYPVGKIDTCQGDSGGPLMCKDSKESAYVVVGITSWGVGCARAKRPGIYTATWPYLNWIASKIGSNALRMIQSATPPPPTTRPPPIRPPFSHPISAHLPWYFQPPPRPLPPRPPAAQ

Compound CCCCCCNS(=O)(=O)c1ccc2nc(NC(=O)NCCO)[nH]c2c1 has an IC50 of 1.62 mM.

O=C(NCCO)Nc1nc2ccc(S(=O)(=O)NCc3ccccc3)cc2[nH]1 was tested, and the IC50 was 0.28 mM.

In the case of O=C(NCCO)Nc1nc2ccc(S(=O)(=O)NCc3cc(F)cc(F)c3)cc2[nH]1, the IC50 is reported as 0.34 mM.

Work on CCOC(=O)c1nn(C(=O)c2ccc(Cl)cc2Cl)c2ccccc12 yielded an IC50 of 3.24 mM.

CCCCCN1CCN(CC(=O)Nc2nc3ccc(Br)cc3s2)CC1 gave an IC50 of 5.08 mM.

With COc1ccccc1CNS(=O)(=O)c1ccc2nc(NC(=O)NCCO)[nH]c2c1 the IC50 was 6.04 mM.

COc1cccc(CNS(=O)(=O)c2ccc3nc(NC(=O)NCCO)[nH]c3c2)c1 showed an IC50 of 7.32 mM.

Compound CNC(=O)c1nn(C(=O)c2ccc(Cl)cc2Cl)c2ccccc12 has an IC50 of 3.78 mM.

COc1ccc(-c2cc(C(=O)NCCCO)[nH]n2)cc1 showed an IC50 of 1.43 mM.

O=Cc1cc(-c2ccc(Cl)cc2Cl)on1 gave an IC50 of 39 mM.

COc1ccc(-c2cc(C(=O)NCC(C)O)n[nH]2)cc1 (stereo unspecified) gave an IC50 of 8.92 mM.

In the case of O=C(NCCO)Nc1nc2ccc(S(=O)(=O)NCc3ccccc3F)cc2[nH]1, the IC50 is reported as 0.08 mM.

Work on CCCCN(CCCC)CC(=O)Nc1nc2ccc(Br)cc2s1 yielded an IC50 of 2.78 mM.

For O=C(NCCO)Nc1nc2ccc(S(=O)(=O)NCc3cc(Cl)cc(Cl)c3)cc2[nH]1, the IC50 was 2.45 mM.

With CCCCCN(CCCCC)CC(=O)Nc1nc2ccc(Br)cc2s1 the IC50 was 0.54 mM.

Cc1ccc(S(=O)(=O)NC(CCCCN)C(=O)CCl)cc1 (stereo unspecified) was tested, and the IC50 was 143 mM.

O=C(NCCO)Nc1nc2ccc(S(=O)(=O)NCc3ccccc3Cl)cc2[nH]1 showed an IC50 of 1.06 mM.

COc1ccc(-c2cc(C(=O)N(C)CCO)n[nH]2)cc1 was tested, and the IC50 was 6.81 mM.

With COc1ccc(-c2cc(C(=O)N(CCO)CCO)n[nH]2)cc1 the IC50 was 5.73 mM.

In the case of CC(C)CCN(CCC(C)C)CC(=O)Nc1nc2ccc(Br)cc2s1, the IC50 is reported as 1.09 mM.

Cc1cccc(CNS(=O)(=O)c2ccc3nc(NC(=O)NCCO)[nH]c3c2)c1 gave an IC50 of 5.45 mM.

Reference: ChEMBL document CHEMBL2311372, “Design and synthesis of novel benzoheterocyclic derivatives as human acrosin inhibitors by scaffold hopping” (Eur J Med Chem, 2013)
